In brackets after ≈: the same amount, converted by molar mass.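 These data come from cells grown in 96-well plates and exposed to compound for 48 hours at five concentrations. GI50 is the concentration that inhibits growth by half. TGI denotes the concentration required for complete inhibition of growth.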
Columns and labels:
Experiment in all cases: NCI tumour cell line growth inhibition, 48 h
HOP-92 NSCLC = tested on: HOP-92 NSCLC
OVCAR-8 ovarian = tested on: OVCAR-8 ovarian
SNB-19 CNS = tested on: SNB-19 CNS
SNB-75 CNS = tested on: SNB-75 CNS
NCI-H226 lung = tested on: NCI-H226 lung
P388 leukemia = tested on: P388 leukemia
P388/ADR leukemia = tested on: P388/ADR leukemia
RPMI-8226 leukemia = tested on: RPMI-8226 leukemia
SK-MEL-2 melanoma = tested on: SK-MEL-2 melanoma
SN12K1 renal = tested on: SN12K1 renal

Work on `CCOC(=O)NC(=O)c1cn(CCSCCOC(=O)NCCCCCCNC(=O)OCCSCCn2cc(C(=O)NC(=O)OCC)c(=O)[nH]c2=O)c(=O)[nH]c1=O` yielded a TGI (HOP-92 NSCLC) of over 100 µM, a TGI (OVCAR-8 ovarian) of over 100 µM and a TGI (SNB-19 CNS) of over 100 µM. The TGI (SNB-75 CNS) was over 100 µM.

In the case of `COc1cc2c(cc1OC)C(Cc1c3ccccc3cc3ccccc13)N(C)CC2` (centres undefined), the TGI (HOP-92 NSCLC) is reported as 35 µM, the TGI (NCI-H226 lung) is reported as 60.2 µM and the TGI (OVCAR-8 ovarian) is reported as over 90.7 µM. It also gave a TGI (P388 leukemia) of 47.6 µM, a TGI (P388/ADR leukemia) of 35 µM and a TGI (RPMI-8226 leukemia) of 34 µM. For the same compound, the TGI (SK-MEL-2 melanoma) was 32.6 µM, the TGI (SN12K1 renal) was 30.3 µM and the TGI (SNB-19 CNS) was 52.4 µM. It also gave a TGI (SNB-75 CNS) of 37.2 µM.

`NC(N)=Nc1nc2ccccc2[nH]1` was tested, and the GI50 (HOP-92 NSCLC) was 103 µg/mL, the TGI (HOP-92 NSCLC) was over 150 µg/mL and the GI50 (NCI-H226 lung) was 55.3 µg/mL. It also gave a TGI (NCI-H226 lung) of over 150 µg/mL, a GI50 (OVCAR-8 ovarian) of 76.5 µg/mL and a TGI (OVCAR-8 ovarian) of over 150 µg/mL. The GI50 (P388 leukemia) was 4.46 µg/mL (≈ 25.4 µM), the TGI (P388 leukemia) was 20.5 µg/mL and the GI50 (P388/ADR leukemia) was 6.34 µg/mL (≈ 36.2 µM). The TGI (P388/ADR leukemia) was 41.5 µg/mL, the GI50 (RPMI-8226 leukemia) was 2.98 µg/mL and the TGI (RPMI-8226 leukemia) was 29.7 µg/mL. The GI50 (SK-MEL-2 melanoma) was 95 µg/mL (≈ 542 µM), the TGI (SK-MEL-2 melanoma) was over 150 µg/mL and the GI50 (SN12K1 renal) was 37.6 µg/mL (≈ 215 µM). The TGI (SN12K1 renal) was over 150 µg/mL, the GI50 (SNB-19 CNS) was 137 µg/mL (≈ 782 µM) and the TGI (SNB-19 CNS) was over 150 µg/mL. For the same compound, the GI50 (SNB-75 CNS) was 150 µg/mL and the TGI (SNB-75 CNS) was over 150 µg/mL.

With `Cc1cc(N=Nc2ccc(N=Nc3c(O)c(S(=O)(=O)O)cc4cc(S(=O)(=O)O)ccc34)cc2C)ccc1N=Nc1ccc2cc(S(=O)(=O)O)cc(S(=O)(=O)O)c2c1` the TGI (HOP-92 NSCLC) was over 100 µM, the TGI (NCI-H226 lung) was over 100 µM and the TGI (OVCAR-8 ovarian) was over 31.6 µM. It also gave a TGI (P388 leukemia) of over 73.1 µM, a TGI (P388/ADR leukemia) of over 100 µM and a TGI (RPMI-8226 leukemia) of over 100 µM. It also gave a TGI (SK-MEL-2 melanoma) of over 100 µM, a TGI (SN12K1 renal) of over 100 µM and a TGI (SNB-19 CNS) of over 100 µM. The TGI (SNB-75 CNS) was over 100 µM.

With `CC1=C2C(O)C(C(C)C(=O)NC(C)C)CCC2(C)C=CC1=O` (centres undefined) the TGI (HOP-92 NSCLC) was over 100 µM, the TGI (NCI-H226 lung) was over 100 µM and the TGI (OVCAR-8 ovarian) was over 100 µM. It also gave a TGI (P388 leukemia) of over 100 µM, a TGI (P388/ADR leukemia) of over 100 µM and a TGI (RPMI-8226 leukemia) of over 100 µM. The TGI (SK-MEL-2 melanoma) was over 100 µM, the TGI (SN12K1 renal) was over 100 µM and the TGI (SNB-19 CNS) was over 100 µM. For the same compound, the TGI (SNB-75 CNS) was over 100 µM.

`CCNCCCCNCC` showed a TGI (HOP-92 NSCLC) of over 3750 µM, a TGI (NCI-H226 lung) of over 3750 µM and a TGI (OVCAR-8 ovarian) of over 3750 µM. For the same compound, the TGI (P388 leukemia) was over 3750 µM, the TGI (P388/ADR leukemia) was over 3750 µM and the TGI (RPMI-8226 leukemia) was over 3750 µM. It also gave a TGI (SK-MEL-2 melanoma) of over 3750 µM, a TGI (SN12K1 renal) of over 3750 µM and a TGI (SNB-19 CNS) of over 3750 µM. For the same compound, the TGI (SNB-75 CNS) was over 3750 µM.

`COC(=O)NN1C(=O)C(=P(c2ccccc2)(c2ccccc2)c2ccccc2)C(C(=O)OC)=C1C` showed a TGI (HOP-92 NSCLC) of 79.5 µM, a TGI (NCI-H226 lung) of over 100 µM and a TGI (OVCAR-8 ovarian) of over 100 µM. The TGI (RPMI-8226 leukemia) was over 100 µM, the TGI (SK-MEL-2 melanoma) was over 100 µM and the TGI (SNB-19 CNS) was over 100 µM. It also gave a TGI (SNB-75 CNS) of over 100 µM.

`COc1cc([C@@H]2c3cc4c(c(O)c3C[C@H]3COC(=O)[C@@H]32)OCO4)cc(OC)c1O` gave a GI50 (HOP-92 NSCLC) of 0.00576 µM, a TGI (HOP-92 NSCLC) of 0.113 µM and a GI50 (NCI-H226 lung) of 0.00562 µM. The GI50 (OVCAR-8 ovarian) was 0.0053 µM, the TGI (OVCAR-8 ovarian) was over 200 µM and the TGI (P388 leukemia) was 1.9 µM. For the same compound, the TGI (P388/ADR leukemia) was 0.992 µM, the GI50 (RPMI-8226 leukemia) was 0.0041 µM and the TGI (RPMI-8226 leukemia) was 49.1 µM. For the same compound, the TGI (SK-MEL-2 melanoma) was 6.56 µM, the TGI (SNB-19 CNS) was over 200 µM and the GI50 (SNB-75 CNS) was 0.00421 µM. The TGI (SNB-75 CNS) was over 78.6 µM.

Compound `Cn1c(=O)c2nc(N3CCCCC3)cnc2n(C)c1=O` has a TGI (HOP-92 NSCLC) of over 100 µM, a TGI (OVCAR-8 ovarian) of over 100 µM and a TGI (RPMI-8226 leukemia) of over 100 µM. For the same compound, the TGI (SNB-19 CNS) was over 100 µM and the TGI (SNB-75 CNS) was over 100 µM.

`O=C(O)CNS(=O)(=O)c1ccc(NC(=O)Nc2ccccc2)cc1` gave a TGI (HOP-92 NSCLC) of over 100 µM, a TGI (NCI-H226 lung) of over 100 µM and a TGI (OVCAR-8 ovarian) of over 100 µM. For the same compound, the TGI (P388 leukemia) was over 100 µM, the TGI (P388/ADR leukemia) was over 100 µM and the TGI (RPMI-8226 leukemia) was over 100 µM. The TGI (SK-MEL-2 melanoma) was over 100 µM, the TGI (SN12K1 renal) was over 100 µM and the TGI (SNB-19 CNS) was over 100 µM. The TGI (SNB-75 CNS) was over 100 µM.
